From PMC7452891, “Cytokinin fluoroprobe reveals multiple sites of cytokinin perception at plasma membrane and endoplasmic reticulum” (Nature Communications, 2020) come the findings set out here.

The structures appear in SMILES notation.

For experiment [1], the target named is T1, AHK3 (Arabidopsis thaliana, UniProt Q9C5U1).
T1 construct: expressed in E. coli KMI001 (pSTV28-AHK3)
T1 sequence (Q9C5U1 1-1036): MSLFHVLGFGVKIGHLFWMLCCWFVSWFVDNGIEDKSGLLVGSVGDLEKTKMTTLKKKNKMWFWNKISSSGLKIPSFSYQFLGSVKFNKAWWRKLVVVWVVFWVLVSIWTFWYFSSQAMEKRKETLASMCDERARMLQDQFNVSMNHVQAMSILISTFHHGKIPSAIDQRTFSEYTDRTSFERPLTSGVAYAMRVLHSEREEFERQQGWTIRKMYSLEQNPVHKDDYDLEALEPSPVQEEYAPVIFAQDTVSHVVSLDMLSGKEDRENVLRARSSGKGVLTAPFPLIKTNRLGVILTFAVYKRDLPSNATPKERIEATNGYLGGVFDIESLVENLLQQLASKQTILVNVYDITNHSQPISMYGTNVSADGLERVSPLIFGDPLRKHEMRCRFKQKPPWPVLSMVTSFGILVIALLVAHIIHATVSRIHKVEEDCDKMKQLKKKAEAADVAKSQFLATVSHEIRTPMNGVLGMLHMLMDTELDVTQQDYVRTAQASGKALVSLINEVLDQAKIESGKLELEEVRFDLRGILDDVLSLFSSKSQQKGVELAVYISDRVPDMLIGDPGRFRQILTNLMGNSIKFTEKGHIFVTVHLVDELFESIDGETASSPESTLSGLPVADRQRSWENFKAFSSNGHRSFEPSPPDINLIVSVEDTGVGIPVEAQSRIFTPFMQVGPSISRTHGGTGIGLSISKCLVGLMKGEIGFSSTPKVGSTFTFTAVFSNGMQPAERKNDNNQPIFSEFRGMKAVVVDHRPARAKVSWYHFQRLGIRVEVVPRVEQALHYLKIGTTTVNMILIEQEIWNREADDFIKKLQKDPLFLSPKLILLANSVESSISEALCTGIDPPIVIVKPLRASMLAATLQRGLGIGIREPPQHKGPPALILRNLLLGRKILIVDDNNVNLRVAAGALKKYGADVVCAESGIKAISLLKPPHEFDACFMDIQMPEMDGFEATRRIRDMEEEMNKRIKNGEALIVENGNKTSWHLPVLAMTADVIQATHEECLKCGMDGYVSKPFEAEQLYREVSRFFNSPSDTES
As to the kind of experiment: competitive radioligand binding assay ([[…]-3H]tZ, [[…]-3H]iP) with E. coli cells expressing the receptor. The class given is cell-based.

In experiment [2] the target is T2, AtCKX2 (CYTOKININ OXIDASE/DEHYDROGENASE) (Arabidopsis thaliana, UniProt Q9FUJ3).
T2 construct: gene CKX2
T2 sequence (Q9FUJ3 23-501): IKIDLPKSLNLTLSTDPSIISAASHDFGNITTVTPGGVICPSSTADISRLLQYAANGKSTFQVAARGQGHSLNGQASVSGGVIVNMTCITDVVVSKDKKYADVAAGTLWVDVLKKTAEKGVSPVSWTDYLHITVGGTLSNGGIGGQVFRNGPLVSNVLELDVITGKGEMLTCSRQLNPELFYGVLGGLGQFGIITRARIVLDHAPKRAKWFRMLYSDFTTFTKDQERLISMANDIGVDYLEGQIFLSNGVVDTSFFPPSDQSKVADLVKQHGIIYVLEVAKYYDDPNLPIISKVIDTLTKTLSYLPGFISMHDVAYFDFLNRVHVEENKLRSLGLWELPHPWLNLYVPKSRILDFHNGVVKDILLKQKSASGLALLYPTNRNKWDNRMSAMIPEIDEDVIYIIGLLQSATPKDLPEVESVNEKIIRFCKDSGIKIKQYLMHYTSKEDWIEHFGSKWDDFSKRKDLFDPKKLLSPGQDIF
As to the kind of experiment: in vitro enzymatic reaction with AtCKX2 (kcat, Vmax/Km). It is filed as biochemical.

Experiment [3] addresses T3, CRE1/AHK4 (ARABIDOPSIS HISTIDINE KINASE 4) (Arabidopsis thaliana, UniProt Q9C5U0).
T3 construct: expressed in E. coli KMI001 (pIN-III-AHK4)
As to the kind of experiment: competitive radioligand binding assay ([[…]-3H]tZ, [[…]-3H]iP) with E. coli cells expressing the receptor. The class given is cell-based.

Experiment [4] deals with T1, AHK3. As to the kind of experiment: radioligand ([[…]-3H]tZ, […]) in competitive binding assay with E. coli cells.
Experiment [5] addresses T3, CRE1/AHK4 (ARABIDOPSIS HISTIDINE KINASE 4). The description is as above.

T3 sequence (Q9C5U0 whole entry): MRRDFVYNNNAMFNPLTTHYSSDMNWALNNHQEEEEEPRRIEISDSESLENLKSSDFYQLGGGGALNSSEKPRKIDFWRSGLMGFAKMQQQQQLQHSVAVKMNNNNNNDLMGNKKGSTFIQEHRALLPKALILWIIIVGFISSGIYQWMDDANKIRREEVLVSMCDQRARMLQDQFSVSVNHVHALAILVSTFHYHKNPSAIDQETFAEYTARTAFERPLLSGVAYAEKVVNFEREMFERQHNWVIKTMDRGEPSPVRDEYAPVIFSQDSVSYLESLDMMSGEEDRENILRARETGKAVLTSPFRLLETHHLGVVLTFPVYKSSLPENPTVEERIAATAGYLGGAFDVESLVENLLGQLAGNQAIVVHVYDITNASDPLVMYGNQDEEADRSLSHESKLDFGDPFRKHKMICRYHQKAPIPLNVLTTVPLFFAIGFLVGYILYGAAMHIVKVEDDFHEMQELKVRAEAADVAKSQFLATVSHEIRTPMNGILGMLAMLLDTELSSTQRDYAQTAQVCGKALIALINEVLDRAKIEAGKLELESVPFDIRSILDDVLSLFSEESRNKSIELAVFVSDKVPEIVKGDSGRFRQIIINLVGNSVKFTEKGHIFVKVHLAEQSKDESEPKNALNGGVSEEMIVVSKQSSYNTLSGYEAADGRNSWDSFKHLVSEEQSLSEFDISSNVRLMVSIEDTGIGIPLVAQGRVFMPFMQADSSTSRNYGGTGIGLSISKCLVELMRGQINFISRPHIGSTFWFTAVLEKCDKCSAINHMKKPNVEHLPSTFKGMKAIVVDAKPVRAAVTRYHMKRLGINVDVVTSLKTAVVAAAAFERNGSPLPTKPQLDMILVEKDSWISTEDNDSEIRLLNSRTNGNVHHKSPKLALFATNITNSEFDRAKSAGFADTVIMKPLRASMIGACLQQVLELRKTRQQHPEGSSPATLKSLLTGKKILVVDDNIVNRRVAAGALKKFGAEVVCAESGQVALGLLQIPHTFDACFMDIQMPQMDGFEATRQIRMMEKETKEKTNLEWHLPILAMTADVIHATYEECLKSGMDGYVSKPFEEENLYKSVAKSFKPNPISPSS

The term Ki denotes the dissociation constant of the complex between target and ligand, obtained from inhibition or displacement. As for `CC(C)=CCNc1ncnc2c1ncn2CCNc1ccc([N+](=O)[O-])c2nonc12` [iP-NBD], the figures for the Ki (on AHK3 [1]; in experiment [3]) were around 37 µM and around 1.4 µM, respectively. The “in vitro enzymatic reaction with AtCKX2 (kcat, Vmax/Km)” value in experiment [2] is “AtCKX2 converted iP-NBD to the product with approx. six times lower turnover rate kcat compared to the parental iP”.
`C/C(=C\CNc1ncnc2[nH]cnc12)CO` [tZ]: the “radioligand ([2-3H]tZ, 3 nM) in competitive binding assay with E. coli cells” value at AHK3 [4] is “iP-NBD competes for receptor binding with radiolabelled natural cytokinins iP and tZ”; in experiment [5], “iP-NBD competes for receptor binding with radiolabelled natural cytokinins iP and tZ”.
